Results taken from ChEMBL document CHEMBL1201862, “PubChem BioAssay data set” (2004).
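Method: 48-hour compound exposure of cells in 96-well plates, five concentrations, linear interpolation of endpoints. GI50 = concentration required for 50% inhibition of growth.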 Active and inactive are the calls of the source. Rule as the data show it: active = GI50 up to about 1.1 µM and inactive = higher.

Key:
Assay in all cases: NCI anticancer screen, dose series, 48 h
786-0 = tested on: 786-0
A498 = tested on: A498
A549 = tested on: A549
ACHN = tested on: ACHN
BT-549 = tested on: BT-549
CAKI-1 = tested on: CAKI-1
CCRF-CEM = tested on: CCRF-CEM
COLO 205 = tested on: COLO 205
DU-145 = tested on: DU-145
EKVX = tested on: EKVX
HCT-116 = tested on: HCT-116
HCT-15 = tested on: HCT-15
HL-60 = tested on: HL-60
HOP-62 = tested on: HOP-62
HOP-92 = tested on: HOP-92
HT-29 = tested on: HT-29
Hs-578T = tested on: Hs-578T
IGROV-1 = tested on: IGROV-1
K562 = tested on: K562
KM12 = tested on: KM12
LOX IMVI = tested on: LOX IMVI
M14 = tested on: M14
MCF7 = tested on: MCF7
MDA-MB-231 = tested on: MDA-MB-231
MDA-MB-435 = tested on: MDA-MB-435
MDA-N = tested on: MDA-N
MOLT-4 = tested on: MOLT-4
NCI-H226 = tested on: NCI-H226
NCI-H23 = tested on: NCI-H23
NCI-H460 = tested on: NCI-H460
NCI/ADR-RES = tested on: NCI/ADR-RES
OVCAR-3 = tested on: OVCAR-3
OVCAR-5 = tested on: OVCAR-5
OVCAR-8 = tested on: OVCAR-8
PC-3 = tested on: PC-3
RPMI-8226 = tested on: RPMI-8226
SF-268 = tested on: SF-268
SF-295 = tested on: SF-295
SF-539 = tested on: SF-539
SK-MEL-28 = tested on: SK-MEL-28
SK-MEL-2 = tested on: SK-MEL-2
SK-MEL-5 = tested on: SK-MEL-5
SK-OV-3 = tested on: SK-OV-3
SN12C = tested on: SN12C
SNB-19 = tested on: SNB-19
SNB-75 = tested on: SNB-75
SR = tested on: SR
SW-620 = tested on: SW-620
T47D = tested on: T47D
TK-10 = tested on: TK-10
U-251 = tested on: U-251
UACC-257 = tested on: UACC-257
UACC-62 = tested on: UACC-62
UO-31 = tested on: UO-31

Question: What does the source list for `CCSC1=N/C(=C\c2ccco2)C(Cl)=N1`?
Answer: GI50 (786-0): > 100 µM (inactive); GI50 (A498): > 100 µM (inactive); GI50 (A549): > 100 µM (inactive); GI50 (ACHN): > 100 µM (inactive); GI50 (BT-549): > 100 µM (inactive); GI50 (CAKI-1): > 100 µM (inactive); GI50 (CCRF-CEM): > 100 µM (inactive); GI50 (COLO 205): > 100 µM (inactive); GI50 (DU-145): > 100 µM (inactive); GI50 (EKVX): > 100 µM (inactive); GI50 (HCT-116): > 100 µM (inactive); GI50 (HCT-15): > 100 µM; GI50 (HL-60): > 100 µM (inactive); GI50 (HOP-62): > 100 µM (inactive); GI50 (HOP-92): > 100 µM (inactive); GI50 (HT-29): > 100 µM (inactive); GI50 (Hs-578T): > 100 µM (inactive); GI50 (IGROV-1): > 100 µM (inactive); GI50 (K562): > 100 µM (inactive); GI50 (KM12): > 100 µM (inactive); GI50 (LOX IMVI): > 100 µM (inactive); GI50 (M14): > 100 µM (inactive); GI50 (MCF7): > 100 µM (inactive); GI50 (MDA-MB-231): > 100 µM (inactive); GI50 (MDA-MB-435): > 100 µM (inactive); GI50 (MDA-N): > 100 µM (inactive); GI50 (MOLT-4): > 100 µM (inactive); GI50 (NCI-H226): > 100 µM (inactive); GI50 (NCI-H23): > 100 µM (inactive); GI50 (NCI-H460): > 100 µM (inactive); GI50 (NCI/ADR-RES): > 100 µM (inactive); GI50 (OVCAR-3): > 100 µM (inactive); GI50 (OVCAR-5): > 100 µM (inactive); GI50 (OVCAR-8): > 100 µM (inactive); GI50 (PC-3): > 100 µM (inactive); GI50 (RPMI-8226): > 100 µM (inactive); GI50 (SF-268): > 100 µM (inactive); GI50 (SF-295): > 100 µM (inactive); GI50 (SF-539): > 100 µM (inactive); GI50 (SK-MEL-28): > 100 µM (inactive); GI50 (SK-MEL-2): > 100 µM (inactive); GI50 (SK-MEL-5): > 100 µM (inactive); GI50 (SK-OV-3): > 100 µM (inactive); GI50 (SN12C): > 100 µM (inactive); GI50 (SNB-19): > 100 µM (inactive); GI50 (SNB-75): > 100 µM (inactive); GI50 (SR): > 100 µM (inactive); GI50 (SW-620): > 100 µM (inactive); GI50 (T47D): > 100 µM (inactive); GI50 (TK-10): > 100 µM (inactive); GI50 (U-251): > 100 µM (inactive); GI50 (UACC-257): > 100 µM (inactive); GI50 (UACC-62): > 100 µM (inactive); GI50 (UO-31): > 100 µM (inactive)
